Laboratory results taken from article PMC5000766, “Inhibitory Effect of 2,3,5,6-Tetrafluoro-4-[4-(aryl)-1H-1,2,3-triazol-1-yl]benzenesulfonamide Derivatives on HIV Reverse Transcriptase Associated RNase H Activities” (International Journal of Molecular Sciences, 2016).

What was measured:
[1] = target: T1, HIV-1 RT-associated RNase H (Human immunodeficiency virus type 1 group M subtype B, UniProt P04585); experiment: HIV-1 RNase H polymerase-independent cleavage assay; format: biochemical; settings: compound concentration required to inhibit the HIV-1 RNase H activity by 50%; recombinant HIV-1 RT
T1 construct: The recombinant HIV-1 RT protein; His tag; made in house; host or cells: E. coli strain M15

human MT-4 cells = experiment: Cellular cytotoxicity in MT-4 cells; settings: preliminary finding

In the case of `NS(=O)(=O)c1ccc(-n2cc(CO)nn2)cc1` [Compound 9b], the IC50 [1] is reported as > 100 µM and the melting point is reported as 195 to 197 °C.

With `NCc1cn(-c2ccc(S(N)(=O)=O)cc2)nn1` [Compound 9a] the IC50 [1] was > 100 µM.

With `NS(=O)(=O)c1ccc(-n2cc(-c3ccccc3)nn2)cc1` [Compound 9c] the IC50 [1] was > 100 µM and the melting point was 260 to 261 °C.

`NS(=O)(=O)c1c(F)c(F)c(-n2cc(CO)nn2)c(F)c1F` [Compound 10b] gave a melting point of 133 to 134 °C.

With `CCCCCc1ccc(-c2cn(-c3ccc(S(N)(=O)=O)cc3)nn2)cc1` [Compound 9d] the melting point was 253 to 256 °C.

For `CCOC(=O)C(=O)CC(=O)/C=C/c1cccn1Cc1ccccc1Cl` [RDS1759, reference compound], the IC50 [1] was 7 ± 1.5 µM.

In the case of `CCCCCc1ccc(-c2cn(-c3c(F)c(F)c(S(N)(=O)=O)c(F)c3F)nn2)cc1` [Compound 10d], the melting point is reported as 197 to 198 °C and the cellular cytotoxicity (human MT-4 cells) is reported as > 7 µM.
